Experimental findings from PMC11274654 (Biomedicines, 2024) are described below.

Molecules are shown by their SMILES. pEC50: −log10 of the molar value.

For orientation: pEC50 means the negative decadic logarithm of the EC50, by convention in mol/L. Low readings indicate a high EC50, high ones a low EC50.

The assay deals with Rat Calvarial Osteoblasts (RCOs). The experiment in a line: ALP assay (osteoblast differentiation) in rat calvarial osteoblasts. In kind it is cell-based. The following applies: for Activity in ALP Assay (Positive/Negative) / Effect on ALP activity compared to the control (vehicle): 48 h; for pEC50: Rattus norvegicus, Calvarial osteoblast, 48 h in osteoblast differentiation media. The protocol: Sequential digestion was performed to isolate calvarial osteoblast cells from neonatal rat pups. Briefly, calvariae were harvested from ten to twelve 1–2-day old rat pups, cleaned, and subjected to five sequential enzymatic digestions (0.1% dispase and 0.1% collagenase I) of 10–15 min each, followed by culturing of the harvested cells in α-MEM supplemented with 10% FBS [22].
RCOs were seeded in 24-well plates (1 × 10^4 cells/well), and the cells were treated for 48 h in osteoblast differentiation media (α-MEM supplemented with 10 mM β-glycerophosphate and 50 μg/mL ascorbic acid) with the imidazole group of chemicals (10^−11 M–10^−6 M).
A total of 2 mg/mL of para-Nitrophenyl phosphate in diethanolamine buffer was used to measure the ALP activity at a 405 nm wavelength.

On to `O=C(Cn1ccnc1[N+](=O)[O-])NCCO` [Etanidazole], for which the “Activity in ALP Assay (Positive/Negative)” value was “Positive”, the “Effect on ALP activity compared to the control (vehicle)” value is “significantly increased” and the pEC50 is 6.40.

In the case of `Cc1ncc([N+](=O)[O-])n1CC(O)CCl` (stereo not drawn) [Ornidazole], the “Activity in ALP Assay (Positive/Negative)” value is on record as “Negative”, the “Effect on ALP activity compared to the control (vehicle)” value is “no effect” and the pEC50 is below 5.00.

As for `Cn1c([N+](=O)[O-])cnc1COC(N)=O` [Ronidazole], the “Activity in ALP Assay (Positive/Negative)” value was “Negative”, the “Effect on ALP activity compared to the control (vehicle)” value is listed as “no effect” and the pEC50 was below 5.00.

Consider `Cc1ncc([N+](=O)[O-])n1CC(C)O` (stereo not drawn) [Secnidazole], for which the “Activity in ALP Assay (Positive/Negative)” value is reported as “Negative”, the “Effect on ALP activity compared to the control (vehicle)” value is recorded as “no effect” and the pEC50 is below 5.00.

Take `CCS(=O)(=O)CCn1c([N+](=O)[O-])cnc1C` [Tinidazole]: the “Activity in ALP Assay (Positive/Negative)” value is recorded as “Negative”, the “Effect on ALP activity compared to the control (vehicle)” value is “no effect” and the pEC50 is below 5.00.
